Assay results as given in US11779014B2, “Adjuvants” (SYNGENTA PARTICIPATIONS AG, priority 2017, dated 2023).

What was measured:
[1] = De-gelling temperature of aqueous surfactant blends by low shear rheology (Bohlin Gemini rheometer, storage modulus vs temperature); format: physicochemical
Experimental: The temperatures at which blends of capped and uncapped surfactants de-gel were determined by standard low shear rheology with a Bohlin™ Gemini rheometer. The storage modulus (G′) at 1 Hz was determined at a strain of 0.001-0.002 in a standard C14 cup and bob geometry over a temperature range of 5-70° C., the exact range depending on the de-gelling point of the sample. Plots of storage modulus versus temperature were constructed and the de-gelling temperature was taken to be the point at which the modulus begins to fall rapidly from its high value in the gelled state (typically ca. 10^5 Pa) down to the final value in the de-gelled state (less than 10 Pa). Blends of surfactants were prepared at from 25 to 40% w/w total surfactant concentration in water. Samples were left in an oven at 55° C. for several days to ensure that the mixtures were homogeneous. Samples were placed in the C14 cup and the samples were de-gelled by raising the temperature in the rheometer, the bob was then inserted and the sample was then cooled at 1° C./min, whilst the storage modulus was regularly recorded during the cooling. Once the final temperature had been reached (i.e. when the sample had gelled), the temperature was then increased again and the modulus again recorded. The de-gelling temperature was determined from the increasing temperature cycle.
Degelling temperatures—the measurements relied on the same method as for ‘Example 1’ but just at 30% w/w total surfactant concentration.
De-gelling temperatures were measured using the same method as in Example 1.
(§1) This example provides de-gelling, cloud point and adjuvancy data for dodecyl 23 ethoxylate with n-hexyl cap and hexadecyl 20 ethoxylate with n-hexyl cap Cloud points were measured as described in example 1 for 1% aqueous solutions of the capped and uncapped surfactants both individually and as blends (see Table 30). Degelling temperatures were also measured as outlined in example 1 for 25, 30, 35 and 40% aqueous solutions of the capped and uncapped surfactants both individually and as blends (see Table 31).
(§2) This example provides de-gelling, cloud point and adjuvancy data for oleyl 20 ethoxylate with n-butyl, n-pentyl or benzyl ether caps end capped oleyl 20 ethoxylate. Cloud points were measured as described in example 1 for 1% aqueous solutions of the capped and uncapped surfactants both individually and as blends. Degelling temperatures were also measured as outlined in example 1 for 25, 30, 35 and 40% aqueous solutions o of the capped and uncapped surfactants both individually and as blends.

[2] = Cloud point measurement (absorbance at 500 nm as a function of temperature); format: physicochemical; details: 1% aqueous solutions
Experimental: Consistent with the standard method for measuring the cloud point of surfactants, the cloud point of each of the above blends was measured at a total concentration of 1% w/w in water using a Perkin Elmer spectrophotometer fitted with a PTP6 temperature controller. The absorbance of the solution at 500 nm wavelength was determined as a function of temperature. The cloud point was recorded as the onset of a rapid increase in absorbance as the solution began to cloud.
Cloud point—the measurements relied on the same method as for ‘Example 1’
Cloud points—were measured using the same method as in Example 1.
as §1, §2

Avena fatua (AVEFA) = assay: Glasshouse adjuvancy test for pinoxaden on AVEFA; format: in vivo; details: pinoxaden 15 g ai/ha, total surfactant 0.2% w/v, 21 days
Experimental: The efficacy of 1:1 blends of oleyl 20EO with oleyl 20EO with either n-hexanoyl, n-octanoyl or 2-ethyl hexanoyl ester caps as adjuvants for the herbicide pinoxaden was tested in a glasshouse against two weed species, sown into standard soil in pots and cultivated under controlled conditions in a glasshouse (20/16° C. day/night; 16 hours light; 65% humidity). Pinoxaden was added to the spray tank as a standard EC (emulsifiable concentrate) formulation. The plants were sprayed with pinoxaden at rates of 7.5 or 15 grams of pesticide per hectare using a laboratory track sprayer which delivered the aqueous spray composition at a rate of 200 litres per hectare, using a flat fan nozzle (Teejet 11002VS) at 2 bar. The spray solutions also contained the oleyl 20EO alone or in the 1:1 blends with the capped surfactants. The adjuvants were added to the spray solution at a total surfactant rate of 0.2% w/v. All spray solutions also contained 10% w/w of iso-propanol. The weed species and their BBCH growth stage at spraying were Avena fatua (AVEFA; growth stage 13) and Setaria viridis (SETVI; growth stage 13). Each spray test was replicated three times. The test plants were then grown in a glasshouse under controlled conditions (20/16° C. day/night; 16 hours light; 65% humidity) and watered twice a day. The efficacy of the herbicide was assessed visually and expressed as a percentage of the leaf area killed. Samples were assessed at a time period of 21 days following application.
Dodecyl 23EO and hexadecyl 20EO were capped with an n-hexyl ether cap. The efficacy of 1:1 blends of these with their uncapped counterparts were tested as adjuvants for the herbicide pinoxaden was tested in a glasshouse against two weed species, sown into standard soil in pots and cultivated under controlled conditions in a glasshouse (20/16° C. day/night; 16 hours light; 65% humidity). Pinoxaden was added to the spray tank as a standard EC (emulsifiable concentrate) formulation. The plants were sprayed with pinoxaden at a.i. rates of 7.5 or 15 grams per hectare using a laboratory track sprayer which delivered the aqueous spray composition at a rate of 200 litres per hectare, using a flat fan nozzle (Teejet 11002VS) at 2 bar. The spray solutions tested included the capped and uncapped alone or in the 1:1 blends with the capped surfactants. The adjuvants were added to the spray solution at a total surfactant rate of 0.2% w/v. All spray solutions also contained 10% w/w of iso-propanol. The weed species and their BBCH growth stage at spraying was Avena fatua (AVEFA; growth stage 12). Each spray test was replicated three times. The test plants were then grown in a glasshouse under controlled conditions (20/16° C. day/night; 16 hours light; 65% humidity) and watered twice a day. The efficacy of the herbicide was assessed visually and expressed as a percentage of the leaf area killed. Samples were assessed at a time period of 21 days following application.
Oleyl 20EO was capped with -butyl, n-pentyl and n-benzyl caps. The efficacy of 1:1 blends of these with their uncapped counterparts were tested as adjuvants for the herbicide pinoxaden was tested in a glasshouse against two weed species, sown into standard soil in pots and cultivated under controlled conditions in a glasshouse (20/16° C. day/night; 16 hours light; 65% humidity). Pinoxaden was added to the spray tank as a standard EC (emulsifiable concentrate) formulation. The plants were sprayed with pinoxaden at a.i. rates of 7.5 or 15 grams per hectare using a laboratory track sprayer which delivered the aqueous spray composition at a rate of 200 litres per hectare, using a flat fan nozzle (Teejet 11002VS) at 2 bar. The spray solutions tested included the capped and uncapped alone or in the 1:1 blends with the capped surfactants. The adjuvants were added to the spray solution at a total surfactant rate of 0.2% w/v. All spray solutions also contained 10% w/w of iso-propanol.

[3] = total surfactant concentration 25% w/w, Table 31
[4] = total surfactant concentration 30% w/w, Table 31
[5] = total surfactant concentration 35% w/w, Table 31
[6] = total surfactant concentration 40% w/w, Table 31

| De-gelling temperature ([1]; total surfactant concentration 25% w/w, Table 35) | De-gelling temperature ([1]; total surfactant concentration 30% w/w, Table 35) | De-gelling temperature ([1]; total surfactant concentration 35% w/w, Table 35) | De-gelling temperature ([1]; total surfactant concentration 40% w/w, Table 35) | Cloud point ([2]; Table 34) | De-gelling temperature [1, 3] | De-gelling temperature [1, 4] | De-gelling temperature [1, 5] | De-gelling temperature [1, 6] | Cloud point ([2]; Table 30) | Molecule | Mean control (Avena fatua (AVEFA); Example 9, growth stage 12) | Mean control (Avena fatua (AVEFA); Example 7, growth stage 12) |
| --- | --- | --- | --- | --- | --- | --- | --- | --- | --- | --- | --- | --- |
| <5 °C | <5 °C | 5 °C | 15.1 °C | 38.7 °C |  |  |  |  |  | CCCCCCCC/C=C\CCCCCCCCOCCOCCOCCOCCOCCOCCOCCOCCOCCOCCOCCOCCOCCOCCOCCOCCOCCOCCOCCOCCOCc1ccccc1 [Oleyl 20EO n-benzyl ether] | 89.3% |  |
|  |  |  |  |  | <5 °C | <5 °C | 5.7 °C | 19.6 °C | 55.9 °C | Hexadecyl 20EO n-hexyl ether |  | 93.3% |
|  |  |  |  |  | <5 °C | <5 °C | <5 °C | 7.4 °C | 67.2 °C | Dodecyl 23EO n-hexyl ether |  | 86% |
|  |  |  |  |  | 23.2 °C | 48.7 °C | 66.1 °C | 74.1 °C | >90.0 °C | CCCCCCCCCCCCCCCCOCCOCCOCCOCCOCCOCCOCCOCCOCCOCCOCCOCCOCCOCCOCCOCCOCCOCCOCCOCCO [Hexadecyl 20EO, hexadecyl 20 ethoxylate] |  | 90.3% |
